Source: US20230276831A1, “Food/Beverage Article” (Kikkoman Corporation, priority 2020, published 2023)

Columns and labels:
[1] = system: Lactobacillus rennini (DSM 20253); assay: Antimicrobial action of oxygen-containing heterocyclic compounds in soy sauce (Test Example 6); type: cell-based; set-up: key to Antimicrobial activity: A: The bacterial count decreases to less than 10% of the bacterial count of the control group.; B: The bacterial count decreases to 10% or more and less than 50% of the bacterial count of the control group.; C: The bacterial count decreases to 50% or more and less than 100% of the bacterial count of control group.; D: The bacterial count is the same as the bacterial count of the control group; conditions: salt 4% (w/v), alcohol 5% (v/v); for activity at 5 ppm / activity at 10 ppm / activity at 25 ppm / activity at 50 ppm / activity at 100 ppm / activity at 1 ppm: Loigolactobacillus rennini, DSM20253, 168 h; for activity at 5 ppm: test substance 5 ppm; for activity at 10 ppm: test substance 10 ppm; for activity at 25 ppm: test substance 25 ppm; for activity at 50 ppm: test substance 50 ppm; for activity at 100 ppm: test substance 100 ppm; for Antimicrobial activity / activity at 1 ppm: test substance 1 ppm
Description: (§1) Commercially available whole soybean soy sauce (produced by Kikkoman Corporation) was electrodialyzed and then concentrated under reduced pressure to produce soy sauce at a salt concentration of 0% (w/v) and an alcohol concentration of 0% (v/v). Then, salt and/or alcohol was added to the above-mentioned obtained soy sauce, and the mixture was then heat-treated to produce soy sauce at a salt concentration of 4% (w/v) and an alcohol concentration of 5% (v/v).
The test substance described in Table 20 was added to the above-mentioned produced soy sauce to concentrations of 1 to 100 ppm. Lactic acid bacteria (Lactobacillus rennini (DSM 20253)) were then added to 10^6 to 10^7 cells/mL and cultured at 30° C. for 7 days. After the culture, the number of lactic acid bacteria was measured using the GAM agar medium “Nissui”. Soy sauce to which licoricidin was not added was used as a control group, and the antimicrobial activity was evaluated in comparison with the number of lactic acid bacteria in the control group. The evaluation was performed using the criterion shown below.
• A: The bacterial count decreases to less than 10% of the bacterial count of the control group. • B: The bacterial count decreases to 10% or more and less than 50% of the bacterial count of control group. • C: The bacterial count decreases to 50% or more and less than 100% of the bacterial count of the control group. • D: The bacterial count is the same as the bacterial count of the control group. • -: Not evaluated

[2] = system: Lactobacillus fructivores (NBRC 13954); assay: Antimicrobial action of oxygen-containing heterocyclic compounds in soy sauce (Test Example 7); type: cell-based; conditions: NBRC13954, 168 h, salt 4% (w/v), alcohol 5% (v/v); for activity at 0.1 ppm: test substance 0.1 ppm; for activity at 0.5 ppm: test substance 0.5 ppm; for activity at 1 ppm: test substance 1 ppm; for activity at 5 ppm: test substance 5 ppm; for activity at 25 ppm: test substance 25 ppm; for activity at 50 ppm: test substance 50 ppm
Description: as §1
The test substance described in Table 21 was added to the soy sauce produced in Test Example 6 to concentrations of 0.1 ppm, 0.5 ppm, 1 ppm, 5 ppm, 25 ppm, and 50 ppm. Lactic acid bacteria (Lactobacillus fructivores (NBRC 13954)) were then added to 10^4 to 10^5 cells/mL and cultured at 30° C. for 7 days. After the culture, the number of lactic acid bacteria was measured using Difco Lactobacilli MRS Agar. Soy sauce to which the test substance was not added was used as a control group, and the antimicrobial activity was evaluated in comparison with the number of lactic acid bacteria in the control group. The evaluation was performed using the following criterion.
• A: The bacterial count decreases to less than 10% of the bacterial count of a control group. • B: The bacterial count decreases to 10% or more and less than 50% of the bacterial count of the control group. • C: The bacterial count decreases to 50% or more and less than 100% of the bacterial count of the control group. • D: The bacterial count is the same as the bacterial count of the control group.

| SMILES | activity at 5 ppm [1] [%] | activity at 10 ppm [1] [%] | activity at 25 ppm [1] [%] | activity at 50 ppm [1] [%] | activity at 100 ppm [1] [%] | Antimicrobial activity [1] | activity at 0.1 ppm [2] [%] | activity at 0.5 ppm [2] [%] | activity at 1 ppm [2] [%] | activity at 5 ppm [2] [%] | activity at 25 ppm [2] [%] | activity at 50 ppm [2] [%] | activity at 1 ppm [1] [%] |
| --- | --- | --- | --- | --- | --- | --- | --- | --- | --- | --- | --- | --- | --- |
| C=CC(C)(C)c1c(O)cc(OC)c2cc(-c3ccc(O)cc3O)c(=O)oc12 [Licoarylcoumarin, 3-(2,4-dihydroxyphenyl)-7-hydroxy-5-methoxy-8-(2-methyl-3-butene-2-yl)coumarin] | 50 to 100 | 50 to 100 | 10 to 50 | 10 to 50 | < 10 | D | 10 to 50 | 10 to 50 | 10 to 50 | 50 to 100 | 10 to 50 | 10 to 50 | – |
| CC(C)=CCc1c(O)c(CC=C(C)C)c2occ(-c3ccc(O)cc3)c(=O)c2c1O [8-(γ,γ-dimethylallyl)-wighteone, 6,8-bis(3-methyl-2-butenyl)-3-(4-hydroxyphenyl)-5,7-dihydroxy-4H-1-benzopyran-4-one] | < 10 | < 10 | < 10 | < 10 | < 10 | – | 10 to 50 | 10 to 50 | 10 to 50 | < 10 | < 10 | < 10 | 50 to 100 |
| COc1cc2oc(=O)c(-c3ccc(O)cc3O)cc2c(OC)c1CC=C(C)C [Glycyrin, 3-(2,4-dihydroxyphenyl)-5,7-dimethoxy-6-(3-methyl-2-butenyl)-2H-1-benzopyran-2-one] | 10 to 50 | 10 to 50 | < 10 | < 10 | < 10 | D | 10 to 50 | 10 to 50 | 10 to 50 | 10 to 50 | 10 to 50 | 10 to 50 | – |
| COc1c(CC=C(C)C)c(O)cc2c1C[C@H](c1ccc(O)cc1O)CO2 [Glyasperin C, (3R)-3β(2,4-dihydroxyphenyl)-5-methoxy-6-(3-methyl-2-butenyl)-3,4-dihydro-2H-1-benzopyran-7-ol] | 10 to 50 | 10 to 50 | < 10 | < 10 | < 10 | – | 10 to 50 | 10 to 50 | 10 to 50 | 10 to 50 | 10 to 50 | < 10 | 10 to 50 |
| COc1c(CC=C(C)C)c(O)cc2oc(=O)c(-c3ccc(O)cc3O)cc12 [Glycycoumarin, 3-(2,4-dihydroxyphenyl)-7-hydroxy-5-methoxy-6-(3-methyl-2-butenyl)-2H-1-benzopyran-2-one] | 10 to 50 | 10 to 50 | < 10 | < 10 | < 10 | D | 10 to 50 | 10 to 50 | 10 to 50 | 10 to 50 | < 10 | < 10 | – |
| CC(C)=CCc1cc(-c2coc3cc(O)c(CC=C(C)C)c(O)c3c2=O)cc(O)c1O [Isoangustone A, 3-[3,4-dihydroxy-5-(3-methyl-2-butenyl)phenyl]-5,7-dihydroxy-6-(3-methyl-2-butenyl)-4H-chromen-4-one] | < 10 | < 10 | < 10 | < 10 | < 10 | – | 10 to 50 | 10 to 50 | 50 to 100 | 10 to 50 | < 10 | < 10 | 10 to 50 |
| COc1cc2oc(-c3ccc(O)cc3O)cc2c(OC)c1CC=C(C)C [Gancaonin I, 5-(3-methyl-2-butenyl)-2-(2,4-dihydroxyphenyl)-4,6-dimethoxybenzofuran] | < 10 | < 10 | < 10 | < 10 | < 10 | – | 10 to 50 | 50 to 100 | 10 to 50 | 50 to 100 | 10 to 50 | < 10 | 50 to 100 |
